# According to patent US7452894B2, “Purine derivatives as purinergic receptor antagonists” (Vernalis Research Limited, priority 2001, dated 2008):
# Target: human adenosine A2A receptors (Homo sapiens, UniProt P29274)
# Assay: Binding affinities at hA2A receptors, displacement of [3H]-CGS 21680
# Settings: not given
# human adenosine A2A receptors, sequence (P29274 whole entry): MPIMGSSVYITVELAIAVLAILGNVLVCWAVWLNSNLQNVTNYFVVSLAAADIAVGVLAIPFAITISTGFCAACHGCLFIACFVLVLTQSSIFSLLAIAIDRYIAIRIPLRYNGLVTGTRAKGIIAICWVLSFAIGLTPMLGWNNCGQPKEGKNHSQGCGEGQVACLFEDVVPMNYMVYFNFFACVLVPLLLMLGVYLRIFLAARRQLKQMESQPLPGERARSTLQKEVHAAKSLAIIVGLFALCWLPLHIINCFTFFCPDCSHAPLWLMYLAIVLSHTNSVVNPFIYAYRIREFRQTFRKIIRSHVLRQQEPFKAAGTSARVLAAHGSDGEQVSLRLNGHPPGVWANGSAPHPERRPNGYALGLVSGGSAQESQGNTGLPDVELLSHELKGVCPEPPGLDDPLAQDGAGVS
row,Structure (SMILES),Ki [nM]
1,"Cc1ccc(Cn2cnc3c(-c4ccco4)nc(N)nc32)cc1 [Example 127, 6-(2-Furyl)-9-(4-methylbenzyl)-9H-purine-2-amine]",9
2,"Nc1nc(-c2ccco2)c2ncn(C(=O)NCc3ccc(Cl)cc3Cl)c2n1 [Example 93, 2-Amino-N-(2,4-dichlorobenzyl)-6-(2-furyl)-9H-purine-9-carboxamide]",4
3,"Nc1nc(-c2ccco2)c2ncn(Cc3ccccc3F)c2n1 [Example 157, 9-(2-Fluorobenzyl)-6-(2-furyl)-9H-purine-2-amine]",4
4,"Nc1nc(-c2ccco2)c2ncn(S(=O)(=O)c3ccc(Br)cc3)c2n1 [Example 162, 9-(4-Bromophenyl)sulphonyl-6-(2-furyl)-9H-purine-2-amine]",8
5,"Nc1cccc(Cn2cnc3c(-c4ccco4)nc(N)nc32)c1 [Example 192, 9-(3-Aminobenzyl)-6-(2-furyl)-9H-purine-2-amine]",24
6,"Nc1nc(-c2ccco2)c2ncn(S(=O)(=O)/C=C/c3ccccc3)c2n1 [Example 185, 6-(2-Furyl)-9-(2-phenylethenyl)sulphonyl-9H-purine-2-amine]",7
7,"COc1ccc(CNC(=O)n2cnc3c(-c4ccco4)nc(N)nc32)cc1 [Example 37, 2-Amino-6-(2-furyl)-N-(4-methoxybenzyl)-9H-purine-9-carboxamide]",4
8,"Nc1nc(-c2ccco2)c2ncn(C(=O)NCc3ccc(Cl)c(Cl)c3)c2n1 [Example 80, 2-Amino-N-(3,4-dichlorobenzyl)-6-(2-furyl)-9H-purine-9-carboxamide]",5
9,"Cc1cccc(Cn2cnc3c(-c4ccco4)nc(N)nc32)n1 [Example 212, 6-(2-Furyl)-9-(6-methyl-2-pyridyl)methyl-9H-purine-2-amine]",35
10,"CCCCNC(=O)n1cnc2c(-c3ccco3)nc(N)nc21 [Example 36, 2-Amino-N-n-butyl-6-(2-furyl)-9H-purine-9-carboxamide]",7
11,"CN(C)c1nc(-c2ccco2)c2nc[nH]c2n1 [Example 3, N,N-Dimethyl-6-(2-furyl)-1H-purine-2-amine]",23

# Same assay, conditions: human adenosine A2A receptor, radioligand [3H]-CGS 21680
row,Structure (SMILES),Ki [nM]
1,"Nc1nc(-c2ccco2)c2ncn(C(=O)NCc3ccccc3)c2n1 [Example 26, 2-Amino-N-benzyl-6-(2-furyl)-9H-purine-9-carboxamide]",1
2,"Nc1nc(-c2ccco2)c2ncn(C(=O)NCCc3ccccc3)c2n1 [Example 92, 2-Amino-6-(2-furyl)-N-(2-phenylethyl)-9H-purine-9-carboxamide]",6
3,"COc1nc(-c2ccco2)c2ncn(C(=O)NCc3ccccc3)c2n1 [Example 112, N-Benzyl-2-methoxy-6-(2-furyl)-9H-purine-9-carboxamide]",8
4,"C[C@H](NC(=O)n1cnc2c(-c3ccco3)nc(N)nc21)c1ccccc1 [Example 45, (1S)-2-Amino-6-(2-furyl)-N-(1-phenyethyl)-9H-purine-9-carboxamide]",2
5,"Cc1cccc(CNC(=O)n2cnc3c(-c4ccco4)nc(N)nc32)c1 [Example 47, 2-Amino-6-(2-furyl)-N-(3-methylbenzyl)-9H-purine-9-carboxamide]",1
6,"Nc1nc(-c2ccco2)c2ncn(C(=O)NCc3cccs3)c2n1 [Example 202, 2-Amino-6-(2-furyl)-N-(2-thienylmethyl)-9H-purine-9-carboxamide]",1
7,"Nc1nc(-c2ccco2)c2ncn(C(=O)NCc3ccco3)c2n1 [Example 201, 2-Amino-6-(2-furyl)-N-(2-furylmethyl)-9H-purine-9-carboxamide]",2
8,"Cc1ccc(CNC(=O)n2cnc3c(-c4ccco4)nc(N)nc32)cc1 [Example 38, 2-Amino-6-(2-furyl)-N-(4-methylbenzyl)-9H-purine-9-carboxamide]",1

# Tested on: not given
# Assay: not given
# Settings: not given
row,Structure (SMILES),melting point
1,"CC(C)(C)OC(=O)n1cnc2c(-c3ccco3)nc(N)nc21 [Example 14, tert-Butyl 2-amino-6-(2-furyl)-9H-purine-9-carboxylate]",143.2 to 144.1 °C
2,"COc1ccc(NC(=O)Cn2cnc3c(-c4ccco4)nc(N)nc32)c(C)c1 [Example 169, 2-Amino-6-(2-furyl)-N-(4-methoxy-2-methylphenyl)-9H-purine-9-acetamide]",287.1 to 288.2 °C
3,"COC(=O)c1ccc(Cn2cnc3c(-c4ccco4)nc(N)nc32)cc1 [Example 215, Methyl 4-(2-amino-6-(2-furyl)-9H-purine-9-ylmethyl)benzoate]",219.5 to 219.7 °C
4,"Nc1nc(-c2ccco2)c2ncn(CC(=O)NCc3ccccc3)c2n1 [Example 86, 2-Amino-N-benzyl-6-(2-furyl)-9H-purine-9-acetamide]",287.2 to 287.8 °C
5,"OCCNc1nc(-c2ccco2)c2nc[nH]c2n1 [Example 5, N-(2-Hydroxyethyl)-6-(2-furyl)-1H-purine-2-amine]",227.1 to 228.1 °C
6,C=CCNc1nc(-c2ccco2)c2ncn(COCC[Si](C)(C)C)c2n1,185.5 to 186 °C
7,"C=CCNc1nc(-c2ccco2)c2nc[nH]c2n1 [Example 17, N-Allyl-6-(2-furyl)-1H-purine-2-amine]",158.7 to 160.1 °C
8,"Nc1nc(-c2ccco2)c2ncn(CC(=O)N3CCCC3)c2n1 [Example 88, 6-(2-Furyl)-9-(2-oxo-2-(1-pyrrolidinyl)ethyl)-9H-purine-2-amine]",283.6 to 283.7 °C
9,"CC(C)(C)NC(=O)n1cnc2c(-c3ccco3)nc(N)nc21 [Example 21, 2-Amino-N-tert-butyl-6-(2-furyl)-9H-purine-9-carboxamide]",295 °C (dec.)
10,"Cc1ccc(S(=O)(=O)n2cnc3c(-c4ccco4)nc(N(C)C)nc32)cc1 [Example 56, N,N-Dimethyl-6-(2-furyl)-9-(4-methylphenylsulphonyl)-9H-purine-2-amine]",212.6 to 213 °C
11,CN(C)c1nc(-c2ccco2)c2ncn(COCC[Si](C)(C)C)c2n1,81.5 to 82.2 °C
12,"Nc1nc(-c2ccco2)c2ncn(CC(=O)Nc3cccnc3)c2n1 [Example 143, 2-Amino-6-(2-furyl)-N-(3-pyridyl)-9H-purine-9-acetamide]",285.6 to 286.4 °C
13,"Nc1nc(-c2ccco2)c2ncn(C(=O)N3CCCC3)c2n1 [Example 29, 6-(2-Furyl)-9-(1-pyrrolidinylcarbonyl)-9H-purine-2-amine]",> 300 °C (dec.)
14,"Nc1nc(-c2ccco2)c2ncn(CC(=O)Nc3ccccc3)c2n1 [Example 85, 2-Amino-6-(2-furyl)-N-phenyl-9H-purine-9-acetamide]",289.1 to 289.7 °C
15,"OC[C@H]1CCCN1c1nc(-c2ccco2)c2nc[nH]c2n1 [Example 9, (2R)-1-(6-(2-Furyl)-1H-purine-2-yl)-2-pyrrolidinemethanol]",130.9 to 131.5 °C
16,"Nc1nc(-c2ccco2)c2ncn(CC(=O)O)c2n1 [Example 73, 2-Amino-6-(2-furyl)-9H-purine-9-acetic acid]",> 300 °C (dec.)

row,Structure (SMILES),melting point
1,"CNC(=O)Cn1cnc2c(-c3ccco3)nc(N)nc21 [Example 89, 2-Amino-6-(2-furyl)-N-methyl-9H-purine-9-acetamide]",290.2 to 291.6 °C
2,"Cn1cncc1-c1nc(N)nc2[nH]cnc12 [Example 209, 6-(1-Methyl-1H-imidazol-5-yl)-1H-purine-2-amine]",300 °C (dec.)
3,"C[C@H](N)Cn1cnc2c(-c3ccco3)nc(N)nc21 [Example 251, (2S)-9-(2-Amino-1-propyl)-6-(2-furyl)-9H-purine-2-amine]",247 to 252 °C
4,"CC(=O)n1cnc2c(-c3ccco3)nc(N)nc21 [Example 34, 9-Acetyl-6-(2-furyl)-9H-purine-2-amine]",> 300 °C (dec.)
5,"Cc1ccc(-c2nc(N)nc3c2ncn3Cc2ccccc2F)nc1 [Example 243, 9-(2-Fluorobenzyl)-6-(5-methyl-2-pyridinyl)-9H-purine-2-amine]",299.8 °C
6,"CC(C)NC(=O)n1cnc2c(-c3ccco3)nc(N)nc21 [Example 30, 2-Amino-6-(2-furyl)N-isopropyl-9H-purine-9-carboxamide]",> 300 °C (dec.)
7,"COc1cccc(NC(=O)Cn2cnc3c(-c4ccco4)nc(N)nc32)c1 [Example 231, 2-Amino-6-(2-furyl)-N-(3-methoxyphenyl)-9H-purine-9-acetamide]",278.5 to 280.4 °C
8,"Nc1nc(-c2cncs2)c2ncn(Cc3ccccc3F)c2n1 [Example 267, 9-(2-Fluorobenzyl)-6-(thiazol-5-yl)-9H-purine-2-amine]",190.5 to 190.6 °C
9,"Nc1nc(-c2ccco2)c2ncn(CC(=O)NCc3ccccn3)c2n1 [Example 119, 2-Amino-6-(2-furyl)-N-(2-pyridylmethyl)-9H-purine-9-acetamide]",238.3 to 238.4 °C
10,"Cc1ccc(-c2nc(N)nc3[nH]cnc23)o1 [Example 195, 6-(5-Methyl-2-furyl)-1H-purine-2-amine]",> 190 °C (dec.)
11,"CCNC(=O)n1cnc2c(-c3ccco3)nc(N)nc21 [Example 24, 2-Amino-N-ethyl-6-(2-furyl)-9H-purine-9-carboxamide]",> 280 °C (dec.)
12,"Cn1cccc1-c1nc(N)nc2c1ncn2C(=O)NCc1ccccc1 [Example 134, 2-Amino-N-benzyl-6-(1-methyl-1H-pyrrol-2-yl)-9H-purine-9-carboxamide]",> 230 °C (dec.)
13,"Nc1nc(-c2ccco2)c2ncn(C(=O)NC3CCCCC3)c2n1 [Example 19, 2-Amino-N-cyclohexyl-6-(2-furyl)-9H-purine-9-carboxamide]",177.6 to 178.2 °C
14,"Nc1nc(-c2cc3ccccc3o2)c2ncn(C(=O)NCc3ccccc3)c2n1 [Example 128, 2-Amino-6-(benzofuran-2-yl)-N-benzyl-9H-purine-9-carboxamide]",> 250 °C (dec.)
15,"Nc1nc(-c2ccco2)c2ncn(CC(=O)NCc3ccccc3F)c2n1 [Example 237, 2-Amino-N-(2-fluorobenzyl)-6-(2-furyl)-9H-purine9-acetamide]",291.9 to 292.1 °C
16,"Nc1nc(-c2ccco2)c2ncn(Cc3ccccc3[N+](=O)[O-])c2n1 [Example 197, 6-(2-Furyl)-9-(2-nitrobenzyl)-9H-purine-2-amine]",290.6 to 290.7 °C
